# Read-outs that look alike come from different tables or passages of the source.
# Experiments:
# Assay in all cases: Antibacterial activity MIC assay (two-fold dilution agar plating)
# Type in all cases: cell-based
# [1] = test system: Proteus mirabilis; conditions: for Minimal Inhibitory Concentration (MIC): Proteus mirabilis ATCC 49565
# Experimental: (§1) Antibacterial Activity-Evaluating Method (MIC Assay)
# (§2) In this study, the compounds of the present invention were tested for their antibacterial activities by using two-fold dilution agar plating method and Denley Multipoint Inoculator A400 according to the guidelines of the CLSI/NCCLS standard. The tested strains were amplified by hydrolyzed casein peptone (Mueller-Hinton Agar) broth and Brain and Heart Infusion. The strains used in this study were bacterial strains that were purchased from ATCC or clinically isolated in Chinese hospitals. Aztreonam, polymyxin or levofloxacin was used as positive control. The drugs were diluted with hydrolyzed casein peptone broth to the desired concentrations including 128.0, 64.0, 32.0, 16.0, 8.0, 4.0, 2.0, 1.0, 0.5, 0.25, 0.125, 0.06 and 0.03 μg/mL, and then placed respectively into each well and mixed thoroughly. After inoculation, the tested strains were incubated for 18 hours at a constant temperature of 35° C., and their growth levels were observed. The drug concentration with no microbial growth in the well was recorded as the lowest Minimal Inhibitory Concentration (MIC).
# [2] = test system: Stenotrophomonas maltophilia; conditions: Stenotrophomonas maltophilia ATCC 13636
# Experimental: as §1, §2
# [3] = test system: Salmonella typhi; conditions: for Minimal Inhibitory Concentration (MIC): Salmonella typhi H901
# Experimental: as §1, §2
# [4] = test system: Enterobacter cloacae; conditions: for MIC: read-out: Minimal Inhibitory Concentration (MIC)
# Experimental: as §1, §2
# [5] = test system: Escherichia coli; conditions: for MIC: Escherichia coli, read-out: Minimal Inhibitory Concentration (MIC)
# Experimental: as §1, §2
# [6] = test system: Serratia marcescens; conditions: Serratia marcescens ATCC 21074
# Experimental: as §1, §2
# [7] = test system: Klebsiella Pneumoniae; conditions: for MIC: Klebsiella pneumoniae, read-out: Minimal Inhibitory Concentration (MIC)
# Experimental: as §1, §2
# [8] = test system: Acinetobacter baumannii; conditions: for MIC: Acinetobacter baumannii, read-out: Minimal Inhibitory Concentration (MIC)
# Experimental: as §1, §2
# [9] = test system: Citrobacter freundii; conditions: Citrobacter freundii ATCC 43864
# Experimental: as §1, §2
# [10] = test system: Providencia rettgeri; conditions: for Minimal Inhibitory Concentration (MIC): Providencia rettgeri ATCC 31052
# Experimental: as §1, §2
# [11] = test system: Proteus vulgaris; conditions: for Minimal Inhibitory Concentration (MIC): Proteus vulgaris ATCC 29905
# Experimental: as §1, §2
# [12] = test system: Pseudomonas aeruginosa; conditions: for MIC: read-out: Minimal Inhibitory Concentration (MIC)
# Experimental: as §1, §2
# [13] = test system: Shigella flexneri; conditions: Shigella flexneri ATCC 12022
# Experimental: as §1, §2
# [14] = test system: Enterobacter aerogenes; conditions: Enterobacter aerogenes ATCC 13048
# Experimental: as §1, §2
# [15] = Enterobacter cloacae ATCC 43560
# [16] = Enterobacter cloacae CDC1000654
# [17] = Escherichia coli 08-85, mcr-1(+)
# [18] = Escherichia coli 13-43, mcr-1(+)
# [19] = Escherichia coli 13-66, mcr-1(+)
# [20] = Escherichia coli 16-1, ESBLs(+)
# [21] = Escherichia coli 16-7, ESBLs(−)
# [22] = Escherichia coli ATCC 25922, ESBLs(−)
# [23] = Escherichia coli ATCC 35218, ESBLs(+)
# [24] = Escherichia coli CDC1001728, NDM-1(+)
# [25] = Klebsiella Pneumoniae 09-20, mcr-1(+)
# [26] = Klebsiella Pneumoniae 16-2, ESBLs(−)
# [27] = Klebsiella Pneumoniae 16-14, ESBLs(+)
# [28] = Klebsiella Pneumoniae ATCC 700603, ESBLs(+)
# [29] = Klebsiella Pneumoniae ATCC BAA-2146, NDM-1(+)
# [30] = Acinetobacter baumannii ATCC 19606
# [31] = Pseudomonas aeruginosa ATCC 27853
smiles,measurement,setting,value
C=CCON=C(C(=O)NC1C(=O)N(OS(=O)(=O)O)C1(C)C)c1csc(N)n1 (stereo not shown) [Compound B-1],Minimal Inhibitory Concentration (MIC),[1],0.125 µg/mL
same,Minimal Inhibitory Concentration (MIC),[2],16 µg/mL
same,Minimal Inhibitory Concentration (MIC),[3],0.25 µg/mL
same,Minimal Inhibitory Concentration (MIC),[4]; [15],0.25 µg/mL
same,Minimal Inhibitory Concentration (MIC),[4]; [16],8 µg/mL
same,Minimal Inhibitory Concentration (MIC),[5]; [17],0.5 µg/mL
same,Minimal Inhibitory Concentration (MIC),[5]; [18],1 µg/mL
same,Minimal Inhibitory Concentration (MIC),[5]; [19],1 µg/mL
same,Minimal Inhibitory Concentration (MIC),[5]; [20],0.25 µg/mL
same,Minimal Inhibitory Concentration (MIC),[5]; [21],0.25 µg/mL
same,Minimal Inhibitory Concentration (MIC),[5]; [22],0.5 µg/mL
same,Minimal Inhibitory Concentration (MIC),[5]; [23],0.5 µg/mL
same,Minimal Inhibitory Concentration (MIC),[5]; [24],4 µg/mL
same,Minimal Inhibitory Concentration (MIC),[6],1 µg/mL
same,Minimal Inhibitory Concentration (MIC),[7]; [25],1 µg/mL
same,Minimal Inhibitory Concentration (MIC),[7]; [26],0.5 µg/mL
same,Minimal Inhibitory Concentration (MIC),[7]; [27],0.5 µg/mL
same,Minimal Inhibitory Concentration (MIC),[7]; [28],16 µg/mL
same,Minimal Inhibitory Concentration (MIC),[7]; [29],4 µg/mL
same,Minimal Inhibitory Concentration (MIC),[8]; Acinetobacter baumannii 16-16,32 µg/mL
same,Minimal Inhibitory Concentration (MIC),[8]; Acinetobacter baumannii 16-33,8 µg/mL
same,Minimal Inhibitory Concentration (MIC),[8]; [30],8 µg/mL
same,Minimal Inhibitory Concentration (MIC),[9],0.5 µg/mL
same,Minimal Inhibitory Concentration (MIC),[10],≤0.03 µg/mL
same,Minimal Inhibitory Concentration (MIC),[11],≤0.03 µg/mL
same,Minimal Inhibitory Concentration (MIC),[12]; Pseudomonas aeruginosa 16-11,>64 µg/mL
same,Minimal Inhibitory Concentration (MIC),[12]; [31],64 µg/mL
same,Minimal Inhibitory Concentration (MIC),[12]; Pseudomonas aeruginosa PAO1,16 µg/mL
same,Minimal Inhibitory Concentration (MIC),[13],0.5 µg/mL
same,Minimal Inhibitory Concentration (MIC),[14],1 µg/mL
C#CCON=C(C(=O)NC1C(=O)N(OS(=O)(=O)O)C1(C)C)c1csc(N)n1 (stereo not shown) [Compound B-2],Minimal Inhibitory Concentration (MIC),[1],0.06 µg/mL
same,Minimal Inhibitory Concentration (MIC),[2],32 µg/mL
same,Minimal Inhibitory Concentration (MIC),[3],0.5 µg/mL
same,Minimal Inhibitory Concentration (MIC),[4]; [15],0.5 µg/mL
same,Minimal Inhibitory Concentration (MIC),[4]; [16],8 µg/mL
same,Minimal Inhibitory Concentration (MIC),[5]; [17],0.5 µg/mL
same,Minimal Inhibitory Concentration (MIC),[5]; [18],1 µg/mL
same,Minimal Inhibitory Concentration (MIC),[5]; [19],1 µg/mL
same,Minimal Inhibitory Concentration (MIC),[5]; [20],0.25 µg/mL
same,Minimal Inhibitory Concentration (MIC),[5]; [21],0.5 µg/mL
same,Minimal Inhibitory Concentration (MIC),[5]; [22],0.5 µg/mL
same,Minimal Inhibitory Concentration (MIC),[5]; [23],0.25 µg/mL
same,Minimal Inhibitory Concentration (MIC),[5]; [24],4 µg/mL
same,Minimal Inhibitory Concentration (MIC),[6],0.5 µg/mL
same,Minimal Inhibitory Concentration (MIC),[7]; [25],1 µg/mL
same,Minimal Inhibitory Concentration (MIC),[7]; [26],0.5 µg/mL
same,Minimal Inhibitory Concentration (MIC),[7]; [27],1 µg/mL
same,Minimal Inhibitory Concentration (MIC),[7]; [28],16 µg/mL
same,Minimal Inhibitory Concentration (MIC),[7]; [29],8 µg/mL
same,Minimal Inhibitory Concentration (MIC),[8]; Acinetobacter baumannii 16-16,32 µg/mL
same,Minimal Inhibitory Concentration (MIC),[8]; Acinetobacter baumannii 16-33,4 µg/mL
same,Minimal Inhibitory Concentration (MIC),[8]; [30],4 µg/mL
same,Minimal Inhibitory Concentration (MIC),[9],0.5 µg/mL
same,Minimal Inhibitory Concentration (MIC),[10],≤0.03 µg/mL
same,Minimal Inhibitory Concentration (MIC),[11],≤0.03 µg/mL
same,Minimal Inhibitory Concentration (MIC),[12]; Pseudomonas aeruginosa 16-11,>64 µg/mL
same,Minimal Inhibitory Concentration (MIC),[12]; [31],>64 µg/mL
same,Minimal Inhibitory Concentration (MIC),[12]; Pseudomonas aeruginosa PAO1,32 µg/mL
same,Minimal Inhibitory Concentration (MIC),[13],0.5 µg/mL
same,Minimal Inhibitory Concentration (MIC),[14],1 µg/mL
"C[C@H]1COc2c(N3CCN(C)CC3)c(F)cc3c(=O)c(C(=O)O)cn1c23 [Levofloxacin, levofloxacin, reference compound]",MIC,"[1]; Proteus mirabilis, ATCC49565, Proteus mirabilis ATCC 49565, read-out: Minimal Inhibitory Concentration (MIC)",≤ 0.03 µg/mL
same,MIC,"[2]; ATCC13636, read-out: Minimal Inhibitory Concentration (MIC)",2 µg/mL
same,MIC,"[3]; Salmonella enterica, TYPHI, read-out: Minimal Inhibitory Concentration (MIC)",≤ 0.03 µg/mL
same,MIC,"[4]; ATCC43560, Enterobacter cloacae ATCC 43560",≤ 0.03 µg/mL
same,MIC,[4]; [16],32 µg/mL
same,MIC,"[5]; ATCC25922, Escherichia coli ATCC 25922, ESBLs(−)",≤ 0.03 µg/mL
same,MIC,"[5]; ATCC35218, Escherichia coli ATCC 35218, ESBLs(+)",≤ 0.03 µg/mL
same,MIC,[5]; [17],16 µg/mL
same,MIC,[5]; [18],32 µg/mL
same,MIC,[5]; [19],32 µg/mL
same,MIC,[5]; [20],0.5 µg/mL
same,MIC,[5]; [21],0.5 µg/mL
same,MIC,"[5]; Escherichia coli 17-R28, CRE, NDM-1(+)",8 µg/mL
same,MIC,[5]; [24],8 µg/mL
same,MIC,"[6]; ATCC21074, read-out: Minimal Inhibitory Concentration (MIC)",0.12 µg/mL
same,MIC,"[7]; ATCC700603, Klebsiella Pneumoniae ATCC 700603, ESBLs(+)",0.5 µg/mL
same,MIC,"[7]; ATCCBAA2146, Klebsiella Pneumoniae ATCC BAA-2146, NDM-1(+)",128 µg/mL
same,MIC,[7]; [25],16 µg/mL
same,MIC,[7]; [26],0.06 µg/mL
same,MIC,[7]; [27],0.5 µg/mL
same,MIC,"[8]; ATCC19606, Acinetobacter baumannii ATCC 19606",0.25 µg/mL
same,MIC,[8]; Acinetobacter baumannii 16-16,16 µg/mL
same,MIC,[8]; Acinetobacter baumannii 16-33,2 µg/mL
same,MIC,"[9]; ATCC43864, read-out: Minimal Inhibitory Concentration (MIC)",≤ 0.03 µg/mL
same,MIC,"[10]; Providencia rettgeri, ATCC31052, Providencia rettgeri ATCC 31052, read-out: Minimal Inhibitory Concentration (MIC)",≤ 0.03 µg/mL
same,MIC,"[11]; Proteus vulgaris, ATCC29905, Proteus vulgaris ATCC 29905, read-out: Minimal Inhibitory Concentration (MIC)",≤ 0.03 µg/mL
same,MIC,"[12]; ATCC27853, Pseudomonas aeruginosa ATCC 27853",1 µg/mL
same,MIC,[12]; Pseudomonas aeruginosa 16-11,0.5 µg/mL
same,MIC,[12]; Pseudomonas aeruginosa PAO1,4 µg/mL
same,MIC,"[13]; ATCC12022, read-out: Minimal Inhibitory Concentration (MIC)",0.06 µg/mL
same,MIC,"[14]; Klebsiella aerogenes, ATCC13048, read-out: Minimal Inhibitory Concentration (MIC)",0.06 µg/mL
